Measured values reported in patent publication US7763269B2, “Therapeutic foam” (BTG International Ltd., priority 2003, dated 2010).

Assay: in vitro absorption of foam/gas in fresh human venous blood
Assay type: in vitro ADME
Settings: 0.5 ml aliquot in 20 ml stirred blood
Experimental: In vitro experiments were conducted to determine the absorption of foam made with different gases in fresh human venous blood.
A 20 ml polypropylene syringe barrel was prepared by puncturing its side wall with a relatively large hypodermic needle to make a hole approximately 1 mm in diameter. This hole was then covered by securing a piece of clear flexible vinyl sheet over it with clear adhesive tape. A small magnetic stirrer element was introduced into the syringe barrel and the plunger then replaced. 20 ml of human venous blood was then with withdrawn in the usual manner from a human subject using the specially prepared syringe fitted with a hypodermic needle.
The hypodermic needle was removed and the syringe then placed on a magnetic stirrer unit so that the magnetic element in the syringe thoroughly agitated the blood. […]
The needle of the 0.5 ml syringe was then introduced through the vinyl sheet on the side wall of the 20 ml syringe. […] It was determined that a distance of 45 intervals on this scale corresponded to an internal volume of in the manometer tubing of approximately 0.5 ml. […]
In this experiment, the air foam test was only observed for a few minutes after tF. However, further experiments have been conducted by the inventors, the results of which are not formally recorded here, involving foam with a percentage of nitrogen. […]

O=O [Oxygen gas, oxygen]
Absorbed volume at tF: 0.46 mL | tF (time until blood column stopped moving): 140 s
